Source: patent US8552013B2, “Heterocyclic compounds based on N6-substituted adenine, methods of their preparation, their use for preparation of drugs, cosmetic preparations and growth regulators, pharmaceutical preparations, cosmetic preparations and growth regulators containing these compounds” (USTAV Experimentalni Botaniky Akademie Ved Ceske Republiky, priority 2001, dated 2013)
pIC50: −log10 of the molar value. Where “and” joins values, the source holds several entries; their conditions need not be identical. Identical values can stand only once. Like-named read-outs stand apart in the source and are kept apart here.

Experiments:
[1] = test system: Rosa hybrida (pot rose cultivar) explants; assay: In vitro and post vitro shoot multiplication and rooting of rose; type: in vivo; details: for Root number per plant / Total root length per plant: Ex vitro, four weeks of acclimatising; for Flower number per explant / Number of new shoots per explant / Root number per explant / Total root length per explant: In vitro, 10 μM, 8 weeks
Procedure: The aim of this experiment was to test whether the new compounds are of practical use in tissue culture practice. The multiplication rate was investigated and the post vitro effects on rooting were examined. Rosa hybrida (pot rose cultivar) was cultured in 350 ml vessels with a screw on polycarbonate lid. Each culture vessel contained 100 ml autoclaved medium (120° C., 20 min). The cultures were maintained at 23±2° C. under a 16 h photoperiod at 40 μM m^−2 s^−1 PAR. The basal medium (BMR) contained Murashige and Skoog (1962) macroelements, microelements and vitamins, 95 μM NaFeEDTA, 555 μM myo-inositol, 111 mM sucrose, 1.332 mM glycine, 684 μM L-glutamine and 7 g/l agar. This medium was supplemented with 10 μM BA, mT, oMeOBAP or mMeOBAP (compound no. 14 and 15, respectively). The control medium didn't contain any cytokinin. After a culture period of 8 weeks, the number of induced shoots per explant was determined, as well as root number/explant and total root length/explant. The roots were removed and the explants (shoot clusters) were planted in unfertilised peat. After four weeks of acclimatising in a fog unit, root number and root length was determined.

[2] = test system: human skin fibroblasts; assay: Cell attachment of human skin fibroblasts; type: cell-based; details: for attachment / Percent of cells attached, effect in words: ortho 40 to 400 μM, meta 40 to 200 μM; for Percent of cells attached, effect in words: para 40 μM to 1 mM; for Overall cell attachment improved (summary): para at 40, 80, 100, 160, 250 and 500 μM
Procedure: All experiments were performed on early and mid passage cultures (about 20 to 40% lifespan completed) of normal human adult skin fibroblast line; designated ASF-2 & Senetek cell line (about 10-90% lifespan completed); designated as SF20. In order to check the effects of test compounds on senescent cells, late passage cells with more than 95% lifespan completed were used. ASF-2 and SF20 cell lines were established from a mammary skin biopsy obtained from a young, non-smoking and healthy […] at the time of breast reduction operation. Normal culture conditions of medium (DMEM) containing antibiotics, 10% foetal calf serum, and incubation at 37° C. with 95% humidity were used. The effects of the test chemicals were determined in the following conditions: […]

[3] = test system: human diploid fibroblasts (HCA cells); assay: Senescence, beta-galactosidase staining of human diploid fibroblasts; type: cell-based; details: for SENESCENT CELLS (%) HCA25: passage 25; for SENESCENT CELLS (%) HCA45: passage 45; for SENESCENT CELLS (%) HCA80: passage 80
Outline: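 HCA fibroblasts at passages 25, 45 and 80 were fixed for 5 min at room temperature in 2% formaldehyde/0.2% glutaraldehyde. They were then incubated at 37 °C without CO2 for 1 to 16 hours with X-gal 1 mg/ml, 5 mM ferri- and ferrocyanide and 2 mM MgCl2 in citric/phosphate buffer, pH 6.0. Blue-stained cells were scored.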

[4] = test system: promyelocytic HL-60 leukemia; assay: Calcein AM cytotoxicity, HL60; type: cell-based, human; details: read-out: IC 50, HL60
Outline: (§1)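 Cells in DMEM with 10% FCS, pre-incubated 24 h, then exposed to six 4-fold compound dilutions in duplicate for 72 h at 37 °C, 5% CO2. Viability read by Calcein AM fluorescence after 1 h further incubation.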

[5] = test system: breast carcinoma cell line MCF-7; assay: Calcein AM cytotoxicity, MCF7; type: cell-based, human; details: read-out: IC 50, MCF7
Outline: as §1

[6] = test system: G-361; assay: Calcein AM cytotoxicity, G-361; type: cell-based; details: read-out: IC 50, G-361

SMILES: Oc1cccc(CNc2ncnc3nc[nH]c23)c1 [meta-topolin, 6-(3-hydroxybenzylamino)purine]
- Root number per plant [1]: 1.4
- Total root length per plant [1]: 3.8 cm
- Flower number per explant [1]: 0.16
- Number of new shoots per explant [1]: 2.1
- Root number per explant [1]: 0.0
- Total root length per explant [1]: 0.0 cm
- reduction in cell attachment ([2]; 400 μM, 6 hours): 20%
- attachment ([2]; 6 hours): about 80%
- Percent of cells attached, effect in words ([2]; 6 hours): not affected to any significant extent
- Overall cell attachment improved (summary) [2]: No improvements
- SENESCENT CELLS (%) HCA25 [3]: 5%
- SENESCENT CELLS (%) HCA45 [3]: 3%
- SENESCENT CELLS (%) HCA80 [3]: 22%

SMILES: Fc1cccc(CNc2ncnc3nc[nH]c23)c1 [6-(3-fluorobenzylamino)purine]
- SENESCENT CELLS (%) HCA25 [3]: 3%
- SENESCENT CELLS (%) HCA45 [3]: 3%
- SENESCENT CELLS (%) HCA80 [3]: 15%

SMILES: Ic1cccc(CNc2ncnc3nc[nH]c23)c1 [6-(3-iodobenzylamino)purine]
- pIC50 ([4]; Homo sapiens, HL-60, 72 h): 3.88
- pIC50 ([5]; Homo sapiens, MCF7, 72 h): 3.89
- pIC50 ([6]; Homo sapiens, G-361, 72 hours): < 3.78

SMILES: Cc1ccccc1CNc1ncnc2nc[nH]c12 [6-(2-methylbenzylamino)purine]
- pIC50 ([4]; Homo sapiens, HL-60, 72 h): < 3.78
- pIC50 ([5]; Homo sapiens, MCF7, 72 h): < 3.78
- pIC50 ([6]; Homo sapiens, G-361, 72 hours): < 3.78

SMILES: Cc1ccc(CNc2ncnc3nc[nH]c23)cc1 [6-(4-methylbenzylamino)purine]
- pIC50 ([4]; Homo sapiens, HL-60, 72 h): 4.06
- pIC50 ([5]; Homo sapiens, MCF7, 72 h): 4.08
- pIC50 ([6]; Homo sapiens, G-361, 72 hours): 3.79

SMILES: COc1cccc(CNc2ncnc3nc[nH]c23)c1 [6-(3-methoxybenzylamino)purine]
- Root number per plant [1]: 1.7
- Total root length per plant [1]: 4.1 cm
- Flower number per explant [1]: 0.03
- Number of new shoots per explant [1]: 4.3
- Root number per explant [1]: 0.0
- Total root length per explant [1]: 0.0 cm
- pIC50 ([5]; 72 hours, listed as 3MeO BAP): 3.83

SMILES: Fc1ccccc1CNc1ncnc2nc[nH]c12 [6-(2-fluorobenzylamino)purine]
- pIC50 ([4]; 72 hours, listed as 2F BAP): < 3.78
- pIC50 ([5]; 72 hours, listed as 2F BAP): 3.96 and 3.89
- SENESCENT CELLS (%) HCA25 [3]: 4%
- SENESCENT CELLS (%) HCA45 [3]: 3%
- SENESCENT CELLS (%) HCA80 [3]: 16%
- pIC50 ([6]; 72 hours): 3.97

SMILES: Oc1ccccc1CNc1ncnc2nc[nH]c12 [ortho-topolin, 6-(2-hydroxybenzylamino)purine]
- attachment ([2]; 6 hours): 80 to 90%
- Percent of cells attached, effect in words ([2]; 6 hours): not affected to any significant extent
- Overall cell attachment improved (summary) [2]: No improvements
- SENESCENT CELLS (%) HCA25 [3]: 3%
- SENESCENT CELLS (%) HCA45 [3]: 4%
- SENESCENT CELLS (%) HCA80 [3]: 17%
